These results are taken from patent publication US12281121B2, “N-containing heteroaryl derivative and pharmaceutical composition comprising same as active ingredient for prevention or treatment of cancer” (VORONOI Inc., priority 2019, dated 2025).

One experiment addresses T1, CCDC6-RET (Homo sapiens, UniProt P07949).
T1 construct: the other entry of the earlier key: CCDC6 (Q16204, Coiled-coil domain-containing protein 6)
Kind of experiment: RET enzyme inhibitory ability, ADP-Glo kinase assay. The class given is biochemical. The settings on record: ATP 10 μM, 25° C., 1 hour. Put shortly:
(§1)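 Purified human RET (658-end, 0.8 ng) was reacted with 10 μM ATP and substrate 1 h at 25°C in 40 mM Tris-HCl pH 7.4, 20 mM MgCl2, 0.5 mg/mL BSA, 50 μM DTT. ADP-Glo luminescence was normalised to solvent control; IC50 (nM) from 3 datasets.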
In general terms: ADP-Glo turns the ADP formed in a reaction into a luminescent signal.

The target in the next experiment is RET (V804M) (Homo sapiens, UniProt P07949, V804M). The description is as above. The class given is biochemical. As to conditions: ATP 10 μM, 25° C., 1 hour. The essentials:
as §1

A further experiment addresses T2, RET (WT) (Homo sapiens, UniProt P07949).
T2 construct: human RET (658-end, SIGNALCHEM); purchased SIGNALCHEM
T2 sequence (P07949 658-1114 limits assumed): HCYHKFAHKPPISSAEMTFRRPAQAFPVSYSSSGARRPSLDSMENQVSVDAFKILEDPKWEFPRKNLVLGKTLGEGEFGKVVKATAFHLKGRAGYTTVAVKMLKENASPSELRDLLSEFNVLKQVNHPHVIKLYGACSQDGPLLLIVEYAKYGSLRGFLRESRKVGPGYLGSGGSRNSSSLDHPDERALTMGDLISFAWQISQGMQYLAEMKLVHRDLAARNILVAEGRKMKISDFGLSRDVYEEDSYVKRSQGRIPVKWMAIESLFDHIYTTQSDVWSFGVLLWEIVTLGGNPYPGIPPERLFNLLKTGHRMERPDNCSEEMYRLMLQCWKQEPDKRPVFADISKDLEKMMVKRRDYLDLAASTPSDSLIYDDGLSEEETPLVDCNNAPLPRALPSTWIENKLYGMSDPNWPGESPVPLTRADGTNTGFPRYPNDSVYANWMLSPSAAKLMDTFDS
The description is as above. The settings on record: ATP 10 μM, 25° C., 1 hour. The class given is biochemical. The essentials:
as §1

The subject of another experiment is Ba/F3 (naive) cells. The experiment can be described thus: Cell proliferation inhibition, CellTiter-Glo. It is filed as cell-based. As to conditions: Mus musculus, BaF3; Ba/F3 not transduced, 72 hours. The essentials:
(§2)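 Ba/F3 lines (naive or RET-fusion-transduced, IL-3 medium) and LC-2/ad cells exposed 72 h to compound, 12 three-fold dilutions spanning 0.3 nM–50 μM final. Viability read by CellTiter-Glo luminescence, in triplicate; GI50 derived from growth ratio (%) versus control.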

In experiment [1] the test system is Ba/F3 CCDC6-RET (WT) cells. Kind of experiment: Cell proliferation inhibition, CellTiter-Glo. The class given is cell-based. As to conditions: BaF3/CCDC6-RET, 72 hours. The essentials:
as §2

Experiment [2] relates to Ba/F3 KIF5B-RET (V804M) cells. The experiment can be described thus: Cell proliferation inhibition, CellTiter-Glo. The settings on record: Mus musculus, BaF3, 72 hours. The class given is cell-based. Put shortly: as §2
In experiment [3] the test system is Ba/F3 KIF5B-RET (WT) cells. Kind of experiment: Cell proliferation inhibition, CellTiter-Glo. The class given is cell-based. As to conditions: Mus musculus, BaF3, 72 hours. Put shortly:
as §2
(Cellular ATP, detected with luciferase, serves as a proxy for viable cell number.)

A further experiment relates to TT cells. The experiment can be described thus: Cell proliferation inhibition, CellTiter-Glo. The class given is cell-based. The settings on record: Homo sapiens; TT thyroid cancer cell line, 72 hours.
Experiment [4] concerns LC-2/ad cells (with CCDC6-RET gene). Kind of experiment: Cell proliferation inhibition, CellTiter-Glo. As to conditions: Homo sapiens; LC-2/ad lung cancer cell line, 72 hours. It is filed as cell-based. Put shortly: as §2
The next experiment concerns the target T3, ABL1-phosphorylated (Homo sapiens, UniProt P00519).
T3 construct: purchased DiscoverX
The experiment can be described thus: ScanMAX Kinase analysis panel (DiscoverX). It is filed as binding. The settings on record: read-out: adjusted percentage (% control). How it is done:
(§3) The following experiment was performed in order to evaluate the inhibitory activity of the compound according to the present invention against more enzymes. Specifically, for Examples 1 and 3 selected among the Example compounds of the present invention, the enzyme (kinase) selectivity was set to be measured by commissioning DiscoverX, and an experiment was conducted using a ScanMAX™ Kinase analysis panel. In this case, the concentration of the drug treated with the enzyme was set to 1 μM in DMSO, the adjusted percentage (% control) was determined in the same manner as in the following Equation 1, and the results are shown in the following Table 3. (Example compound−Positive control)/(Negative control−Positive control)×100 [Equation 1]
(§4) In addition, the enzyme selectivity of the present invention was determined to be active against the corresponding enzyme when the adjusted percentage was <35% (that is, less than 35%).

A further experiment concerns FLT3(ITD, D835V). Kind of experiment: ScanMAX Kinase analysis panel (DiscoverX). The class given is binding. The settings on record: 1 μM. How it is done:
as §3, §4

Another experiment relates to FLT3(ITD, F691L). The experiment can be described thus: ScanMAX Kinase analysis panel (DiscoverX). The class given is binding. As to conditions: 1 μM. How it is done:
as §3, §4

T3 sequence (P00519 whole entry): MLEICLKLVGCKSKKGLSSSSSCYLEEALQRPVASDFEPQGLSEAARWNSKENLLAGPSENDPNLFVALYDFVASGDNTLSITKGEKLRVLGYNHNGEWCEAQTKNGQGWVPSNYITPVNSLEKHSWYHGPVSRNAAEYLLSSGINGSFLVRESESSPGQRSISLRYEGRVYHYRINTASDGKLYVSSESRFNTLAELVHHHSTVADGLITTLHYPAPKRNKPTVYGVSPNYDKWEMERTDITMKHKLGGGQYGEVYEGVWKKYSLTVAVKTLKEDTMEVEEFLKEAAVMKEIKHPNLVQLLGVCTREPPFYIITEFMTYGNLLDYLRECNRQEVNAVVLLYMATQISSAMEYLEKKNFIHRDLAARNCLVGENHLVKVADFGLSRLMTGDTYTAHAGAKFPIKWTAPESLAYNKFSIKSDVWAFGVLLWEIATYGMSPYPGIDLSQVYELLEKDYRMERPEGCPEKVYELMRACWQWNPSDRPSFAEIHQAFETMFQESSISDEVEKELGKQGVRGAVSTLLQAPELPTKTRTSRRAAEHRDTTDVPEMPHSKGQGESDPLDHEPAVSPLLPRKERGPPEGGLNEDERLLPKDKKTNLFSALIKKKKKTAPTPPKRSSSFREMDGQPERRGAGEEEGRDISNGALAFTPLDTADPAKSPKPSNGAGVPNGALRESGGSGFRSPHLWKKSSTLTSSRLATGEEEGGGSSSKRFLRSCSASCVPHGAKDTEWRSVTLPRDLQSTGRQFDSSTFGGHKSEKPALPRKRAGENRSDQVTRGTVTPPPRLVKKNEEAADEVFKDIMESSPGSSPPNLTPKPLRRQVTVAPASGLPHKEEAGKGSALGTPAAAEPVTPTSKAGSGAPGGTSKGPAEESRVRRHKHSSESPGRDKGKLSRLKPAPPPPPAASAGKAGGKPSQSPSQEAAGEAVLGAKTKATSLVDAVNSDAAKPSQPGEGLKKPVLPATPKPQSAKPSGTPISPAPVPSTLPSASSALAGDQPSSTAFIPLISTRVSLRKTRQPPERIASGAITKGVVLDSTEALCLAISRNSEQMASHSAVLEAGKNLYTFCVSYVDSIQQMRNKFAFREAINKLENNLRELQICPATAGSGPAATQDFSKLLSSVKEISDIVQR
T1 sequence (P07949 with tags, fused parts or gaps): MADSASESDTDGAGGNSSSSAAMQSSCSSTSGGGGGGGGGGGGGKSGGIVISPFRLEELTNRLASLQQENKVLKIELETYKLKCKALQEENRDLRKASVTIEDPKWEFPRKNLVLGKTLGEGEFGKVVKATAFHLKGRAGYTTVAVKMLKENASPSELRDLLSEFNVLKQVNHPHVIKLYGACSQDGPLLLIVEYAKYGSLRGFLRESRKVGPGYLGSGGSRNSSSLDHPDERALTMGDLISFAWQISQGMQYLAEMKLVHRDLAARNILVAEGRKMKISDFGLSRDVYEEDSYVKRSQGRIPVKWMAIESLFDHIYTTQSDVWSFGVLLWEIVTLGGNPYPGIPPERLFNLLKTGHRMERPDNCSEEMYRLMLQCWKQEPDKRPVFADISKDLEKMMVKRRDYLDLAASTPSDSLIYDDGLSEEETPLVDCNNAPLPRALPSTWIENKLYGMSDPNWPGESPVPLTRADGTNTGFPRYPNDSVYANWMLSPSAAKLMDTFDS
Chain of RET (V804M) (P07949 658-1114 V804M limits assumed): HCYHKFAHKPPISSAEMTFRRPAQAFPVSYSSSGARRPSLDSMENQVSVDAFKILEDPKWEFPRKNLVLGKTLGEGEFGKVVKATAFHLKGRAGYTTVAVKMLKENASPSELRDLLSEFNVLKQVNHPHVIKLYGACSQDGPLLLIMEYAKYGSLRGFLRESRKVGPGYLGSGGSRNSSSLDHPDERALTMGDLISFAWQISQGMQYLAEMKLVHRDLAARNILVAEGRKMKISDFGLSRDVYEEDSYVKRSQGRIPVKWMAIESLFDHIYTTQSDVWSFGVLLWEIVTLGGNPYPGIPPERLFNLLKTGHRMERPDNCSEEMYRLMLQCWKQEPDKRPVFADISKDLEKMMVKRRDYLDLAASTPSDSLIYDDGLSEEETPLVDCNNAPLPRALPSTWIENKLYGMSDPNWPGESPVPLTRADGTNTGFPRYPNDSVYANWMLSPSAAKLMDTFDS

On to `COc1ccc(CN2C3CC2CN(c2ccc(-c4nc(Nc5cc(C)[nH]n5)c5occc5n4)cn2)C3)cn1` [Example 1, 2-(6-(6-((6-methoxypyridin-3-yl)methyl)-3,6-diazabicyclo[3.1.1]heptan-3-yl)pyridin-3-yl)-N-(5-methyl-1H-pyrazol-3-yl)furo[3,2-d]pyrimidin-4-amine], for which the IC50 at CCDC6-RET was determined as 1.8 nM; against RET (V804M), 2.2 nM; on RET (WT), 18 nM. Further, the GI50 with Ba/F3 (naive) cells came to 4900 nM; in experiment [1] it was 59 nM; in experiment [2] it was 19 nM; in [3], 19 nM; with TT cells, 88 nM; in experiment [4], 14 nM. In addition, on ABL1-phosphorylated, the remaining binding at 1 µM came to 30%. For the same compound, the “adjusted percentage (% control)” value in the experiment with FLT3(ITD, D835V) worked out at 0%; with FLT3(ITD, F691L), 1.4%.

Consider `COc1ccc(CN2C3CC2CN(c2ccc(-c4nc(Nc5cc(C)[nH]n5)c5ccccc5n4)cn2)C3)cn1` [Example 3, 2-(6-(6-((6-methoxypyridin-3-yl)methyl)-3,6-diazabicyclo [3.1.1]heptan-3-yl)pyridin-3-yl)-N-(5-methyl-1H-pyrazol-3-yl)quinazolin-4-amine], for which the half-maximal inhibitory concentration (IC50) at CCDC6-RET worked out at 0.9 nM; against RET (V804M), 0.7 nM; against RET (WT), 7 nM. The GI50 worked out at 2300 nM in the experiment on Ba/F3 (naive) cells; 51 nM in experiment [1]; 3 nM in experiment [2]; 13 nM in [3]; 30 nM with TT cells; 60 nM in experiment [4]. Further, the remaining binding at 1 µM at ABL1-phosphorylated came to 15%. Moreover, the “adjusted percentage (% control)” value with FLT3(ITD, D835V) stood at 0%; with FLT3(ITD, F691L), 8.8%.

One may read the IC50 as the concentration that gives 50% inhibition. The term GI50 denotes the concentration giving 50% growth inhibition.
